Reference: patent US7105492B2, “Camptothecin derivatives having antitumor activity” (priority 1999, dated 2006)
Where “and” joins values, the source holds several entries; their conditions need not be identical. Equal entries are not always repeated.

What was measured:
topoisomerase i = target: T1, topoisomerase i (Homo sapiens, UniProt P11387); assay: Persistence of topoisomerase I-mediated DNA cleavage after addition of 0.6 M NaCl; format: biochemical; conditions: for PERSISTENCE (%) of DNA cleavage on selected sites: drug 10 μm, 20 minutes incubation, then sodium chloride (0.6 M), examined after about 10 minutes; for Reversibility / persistence of the DNA cleavages (in words): after sodium chloride (0.6 M), about 10 minutes
T1 sequence (P11387 1-765): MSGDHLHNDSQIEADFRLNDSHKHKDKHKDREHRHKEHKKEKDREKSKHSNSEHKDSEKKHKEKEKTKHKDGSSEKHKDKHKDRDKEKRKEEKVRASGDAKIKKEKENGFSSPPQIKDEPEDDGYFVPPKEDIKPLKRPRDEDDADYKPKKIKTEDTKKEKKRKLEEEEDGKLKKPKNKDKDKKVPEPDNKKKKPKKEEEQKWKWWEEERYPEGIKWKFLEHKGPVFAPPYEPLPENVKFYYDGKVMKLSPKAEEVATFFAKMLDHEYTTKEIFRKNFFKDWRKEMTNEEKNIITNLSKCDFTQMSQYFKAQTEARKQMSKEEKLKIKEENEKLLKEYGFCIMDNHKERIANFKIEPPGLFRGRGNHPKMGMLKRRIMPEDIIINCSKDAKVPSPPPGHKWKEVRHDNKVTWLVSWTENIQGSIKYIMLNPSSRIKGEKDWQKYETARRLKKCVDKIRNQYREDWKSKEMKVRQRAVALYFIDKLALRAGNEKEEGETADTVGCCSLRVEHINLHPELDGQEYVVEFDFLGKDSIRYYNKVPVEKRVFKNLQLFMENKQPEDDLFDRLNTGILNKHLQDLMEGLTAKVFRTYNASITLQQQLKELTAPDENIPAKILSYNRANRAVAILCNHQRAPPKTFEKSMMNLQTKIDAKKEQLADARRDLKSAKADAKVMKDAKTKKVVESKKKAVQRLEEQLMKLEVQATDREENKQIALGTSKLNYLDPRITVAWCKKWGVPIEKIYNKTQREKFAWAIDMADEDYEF
Protocol: An important drawback of conventional camptothecins is the reversibility of the their bond in the ternary complex (drug-DNA-enzyme).
After 20 minutes of incubation of the drug in the reaction mixture containing labelled DNA and the purified enzyme, sodium chloride (0.6 M) was added with the scope of assisting the dissociation of the ternary complex.

lung carcinoma NCI H460 = assay: Antitumoral activity in nude mice implanted s.c. with NCI H460 tumour fragments (Table 1); conditions: for Efficacy (TVI %): evaluated 5–10 days after the last treatment
Protocol: For the in vivo studies, the solubilization was carried out in 10% DMSO in bidistilled water, being impossible the solubilization in saline, and the administration for the oral route was carried out at a volume of 10 ml/kg.
Atimic nu/nu Swiss mice (Charles River, Calco, Italia), ageing 10–12 weeks were used. The animals were maintained in laminar flow rooms, according to the guidelines of the United Kingdom Co-ordination Committee Cancer Research. Experimental protocols were approved by the Ethical Committee for animal experimentation of Istituto Nazionale per lo Studio e Cura dei Tumori.
Tumour fragments of about 2×2×2 mm coming from mice to which were inoculated s.c. 10^6 cells NCI H460/topo, were implanted s.c. bilaterally in groups of 5 mice each.
Twice a week, using a Vernier caliper, the width, minimum diameter (l), length and maximum diameter (L) of the tumors were measured, in mm. The tumour volume (mm^3) was calculated according to the formula I^2×L/2. Efficacy of the molecule was evaluated as TVI percent of the treated group versus the control group according to the formula TVI%=100−(T/C×100), wherein T is the mean value of the tumour volume of the treated group and C of control one.

[1] = cited from earlier work; for crossing of the hematoencephalic barrier (in words): in vivo
A2780 ovarian ca = assay: Antitumor activity on tumor models: A2780; format: in vivo, mice
From the text: (§1) This broad spectrum of anticancer activity was confirmed in mice transplanted with human tumor xenografts, including NSCLC (H460, A549), prostate ca. (JCA-1), glioblastoma (GBM/7), gastric ca. (MKN28), osteosarcoma (U2OS), ovarian ca. (A2780/Dx, A2780/DDP) and colon (HT29, CoBA) carcinomas as well as in murine lung cancer (M109) and leukaemia model (L1210).

A2780/DDP ovarian ca = assay: Antitumor activity on tumor models: A2780/DDP; format: in vivo, mice
From the text: as §1

A2780/Dx ovarian ca = assay: Antitumor activity on tumor models: A2780/Dx; format: in vivo, mice; conditions: for TVI % / no evidence of tumor at the end of the treatment lasting for about 10 days from the last administration: A2780/Dx
From the text: as §1
The high cytotoxic potency of the compounds of the present invention, herein represented in an exemplary way with one of the preferrred compounds, CPT 184, is also reflected by the potent antitumor activity. […] Moreover, the compounds of the present invention, in particular the CPT 184, were able to induce 100% CR in the A2780/DX tumor characterized by a MDR-phenotype.

L1210 = murine leukemia = assay: Antitumor activity on tumor models: L1210 leukemia, increase in life span; format: in vivo, mice
From the text: as §1

JCA-1 prostate ca = assay: Antitumor activity on tumor models: JCA-1; format: in vivo, mice
From the text: as §1

DU145 prostate ca = assay: Antitumor activity on tumor models: DU145; format: in vivo, mice
GBM/7 glioblastoma = assay: Antitumor activity on tumor models: GBM/7; format: in vivo, mice
From the text: as §1

IGROV-1 ovarian ca = assay: Antitumor activity on tumor models: IGROV-1; format: in vivo, mice
CoBA colon ca = assay: Antitumor activity on tumor models: CoBA; format: in vivo, mice
From the text: as §1

U87 glioblastoma = assay: Antitumor activity on tumor models: U87; format: in vivo, mice
HT29 colon ca = assay: Antitumor activity on tumor models: HT29; format: in vivo, mice
From the text: as §1

H460 = NSCLC = assay: Antitumor activity on tumor models: H460; format: in vivo, mice
From the text: as §1

CC[C@@]1(O)C(=O)OCc2c1cc1n(c2=O)Cc2c-1nc1ccccc1c2C=NO [CPT 181, 7-hydroxyiminomethylcamptothecin, reference compound]
PERSISTENCE (%) of DNA cleavage on selected sites (topoisomerase i): 28%
Toxicity Body weight loss (%) (lung carcinoma NCI H460; 15 mg/kg p.o., q4d × 4): 0%
Toxicity Lethality (lung carcinoma NCI H460; 15 mg/kg p.o., q4d × 4): 0/4
Efficacy (TVI %) (lung carcinoma NCI H460; 15 mg/kg p.o., q4d × 4): 40%
Toxicity Body weight loss (%) (lung carcinoma NCI H460; 25 mg/kg p.o., q4d × 4): 0%
Toxicity Lethality (lung carcinoma NCI H460; 25 mg/kg p.o., q4d × 4): 0/4
Efficacy (TVI %) (lung carcinoma NCI H460; 25 mg/kg p.o., q4d × 4): 70%

CC[C@@]1(O)C(=O)OCc2c1cc1n(c2=O)Cc2cc3ccccc3nc2-1 [Camptothecin]
Reversibility / persistence of the DNA cleavages (in words) (topoisomerase i): almost complete reversibility of the cleavages
PERSISTENCE (%) of DNA cleavage on selected sites (topoisomerase i): 16%
crossing of the hematoencephalic barrier (in words) [1]: does not cross hematoencephalic barrier in significant amount

CC[C@@]1(O)C(=O)OCc2c1cc1n(c2=O)Cc2c-1nc1ccccc1c2C=NOC(C)(C)C [CPT 184, 7-T-Butoxyiminomethylcamptothecin]
TVI % (A2780 ovarian ca; A2780, 2 mg/kg): 100%
no evidence of tumor at the end of the treatment lasting for about 10 days from the last administration (A2780 ovarian ca; A2780, 2 mg/kg): (1/8*)
TVI % (A2780/DDP ovarian ca; 2 mg/kg): 77%
TVI % (A2780/DDP ovarian ca; 3 mg/kg): 90%
Reversibility / persistence of the DNA cleavages (in words) (topoisomerase i): marked persistence
PERSISTENCE (%) of DNA cleavage on selected sites (topoisomerase i): 72%
CR (complete regressions) induced (A2780/Dx ovarian ca; A2780/DX tumor characterized by a MDR-phenotype): 100%
TVI % (A2780/Dx ovarian ca; 2 mg/kg): 92%
no evidence of tumor at the end of the treatment lasting for about 10 days from the last administration (A2780/Dx ovarian ca; 2 mg/kg): (1/8*)
TVI % (A2780/Dx ovarian ca; 3 mg/kg): 100%
no evidence of tumor at the end of the treatment lasting for about 10 days from the last administration (A2780/Dx ovarian ca; 3 mg/kg): (8/8*)
ILS % = percent increase in life span (L1210 = murine leukemia; L1210, 2 mg/kg): > 400%
cured mice alive 120 d from leukemia injection (L1210 = murine leukemia; L1210, 2 mg/kg): *** (>80% of cured mice alive 120 d from leukemia injection.)
TVI % (JCA-1 prostate ca; JCA-1, 2 mg/kg): 98%
no evidence of tumor at the end of the treatment lasting for about 10 days from the last administration (JCA-1 prostate ca; JCA-1, 2 mg/kg): (5/8*)
TVI % (DU145 prostate ca; DU145, 2 mg/kg): 95%
TVI % (GBM/7 glioblastoma; GBM/7, 2 mg/kg): 97%
no evidence of tumor at the end of the treatment lasting for about 10 days from the last administration (GBM/7 glioblastoma; GBM/7, 2 mg/kg): (3/10*)
TVI % (GBM/7 glioblastoma; GBM/7, 3 mg/kg): 98%
no evidence of tumor at the end of the treatment lasting for about 10 days from the last administration (GBM/7 glioblastoma; GBM/7, 3 mg/kg): (2/8*)
TVI % (IGROV-1 ovarian ca; IGROV-1, 2 mg/kg): 93%
TVI % (IGROV-1 ovarian ca; IGROV-1, 3 mg/kg): 96%
TVI % (CoBA colon ca; 2 mg/kg): 84%
TVI % (CoBA colon ca; 3 mg/kg): 87%
TVI % (U87 glioblastoma; U87, 2 mg/kg): 80%
TVI % (U87 glioblastoma; U87, 3 mg/kg): 87%
TVI % (HT29 colon ca; HT29, 2 mg/kg): 92%
Toxicity Body weight loss (%) (lung carcinoma NCI H460; 2 mg/kg p.o., q4d × 4): 0%
Toxicity Lethality (lung carcinoma NCI H460; 2 mg/kg p.o., q4d × 4): 0/5
Efficacy (TVI %) (lung carcinoma NCI H460; 2 mg/kg p.o., q4d × 4): 100%
Toxicity Body weight loss (%) (lung carcinoma NCI H460; 5 mg/kg p.o., q10d × 6): 9%
Toxicity Lethality (lung carcinoma NCI H460; 5 mg/kg p.o., q10d × 6): 0/4
Efficacy (TVI %) (lung carcinoma NCI H460; 5 mg/kg p.o., q10d × 6): 99%
TVI % (H460 = NSCLC; H460, 2 mg/kg): 99%
no evidence of tumor at the end of the treatment lasting for about 10 days from the last administration (H460 = NSCLC; H460, 2 mg/kg): (5/8*)

CC[C@@]1(O)C(=O)OCc2c1cc1n(c2=O)Cc2c-1nc1ccccc1c2C=NOCc1ccccc1 [CPT 172, 7-Benzyloxyiminomethylcamptothecin]
Reversibility / persistence of the DNA cleavages (in words) (topoisomerase i): marked persistence
PERSISTENCE (%) of DNA cleavage on selected sites (topoisomerase i): 80%
ILS % = percent increase in life span (L1210 = murine leukemia; L1210, 25 mg/kg): > 400%
TVI % (JCA-1 prostate ca; JCA-1, 20 mg/kg): 98%
TVI % (GBM/7 glioblastoma; GBM/7, 20 mg/kg): 93%
no evidence of tumor at the end of the treatment lasting for about 10 days from the last administration (GBM/7 glioblastoma; GBM/7, 20 mg/kg): (3/11*)
TVI % (GBM/7 glioblastoma; GBM/7, 25 mg/kg): 98%
no evidence of tumor at the end of the treatment lasting for about 10 days from the last administration (GBM/7 glioblastoma; GBM/7, 25 mg/kg): (9/12*)
TVI % (CoBA colon ca; 20 mg/kg): 84%
TVI % (CoBA colon ca; 25 mg/kg): 93%
TVI % (HT29 colon ca; HT29, 25 mg/kg): 88%
Toxicity Body weight loss (%) (lung carcinoma NCI H460; 2 mg/kg p.o., qd × 5 × 10w): 0%
Toxicity Lethality (lung carcinoma NCI H460; 2 mg/kg p.o., qd × 5 × 10w): 0/3
Efficacy (TVI %) (lung carcinoma NCI H460; 2 mg/kg p.o., qd × 5 × 10w): 90%
Efficacy (TVI %) (lung carcinoma NCI H460; 8 mg/kg p.o., q4d × 4): 77%
Efficacy (TVI %) (lung carcinoma NCI H460; 16 mg/kg p.o., q4d × 4): 88%
Toxicity Body weight loss (%) (lung carcinoma NCI H460; 24 mg/kg p.o., q4d × 4): 6%
Toxicity Lethality (lung carcinoma NCI H460; 24 mg/kg p.o., q4d × 4): 0/4
Efficacy (TVI %) (lung carcinoma NCI H460; 24 mg/kg p.o., q4d × 4): 97%
TVI % (H460 = NSCLC; H460, 25 mg/kg): 97%

CC[C@@]1(O)C(=O)OCc2c1cc1n(c2=O)Cc2cc3c(CN(C)C)c(O)ccc3nc2-1 [TPT, Topotecan, reference compound]
TVI % (A2780 ovarian ca; A2780, 15 mg/kg): 96%
TVI % (A2780/DDP ovarian ca; 15 mg/kg): 92%
Reversibility / persistence of the DNA cleavages (in words) (topoisomerase i): almost complete reversibility of the cleavages
PERSISTENCE (%) of DNA cleavage on selected sites (topoisomerase i): 16%
TVI % (A2780/Dx ovarian ca; 15 mg/kg): 92%
no evidence of tumor at the end of the treatment lasting for about 10 days from the last administration (A2780/Dx ovarian ca; 15 mg/kg): (2/10*)
ILS % = percent increase in life span (L1210 = murine leukemia; L1210, 15 mg/kg): 39%
TVI % (JCA-1 prostate ca; JCA-1, 15 mg/kg): 95%
TVI % (DU145 prostate ca; DU145, 15 mg/kg): 77%
TVI % (GBM/7 glioblastoma; GBM/7, 15 mg/kg): 96%
no evidence of tumor at the end of the treatment lasting for about 10 days from the last administration (GBM/7 glioblastoma; GBM/7, 15 mg/kg): (1/10*)
TVI % (IGROV-1 ovarian ca; IGROV-1, 15 mg/kg): 89%
TVI % (CoBA colon ca; 15 mg/kg): 85%
TVI % (U87 glioblastoma; U87, 15 mg/kg): 82%
TVI % (HT29 colon ca; HT29, 15 mg/kg): 65%
in the cerebrospinal fluid with respect to plasma ([1]; 10 min after infusion): 30%
lactone form hydrolysed to open ring ([1]; 30 min after infusion): 50%
crossing of the hematoencephalic barrier (in words) [1]: crosses hematoencephalic barrier
Toxicity Lethality (lung carcinoma NCI H460; 10 mg/kg p.o., q4d × 4): 0/5
Efficacy (TVI %) (lung carcinoma NCI H460; 10 mg/kg p.o., q4d × 4): 64%
Toxicity Lethality (lung carcinoma NCI H460; 15 mg/kg p.o., q4d × 4): 0/4 and 0/5
Efficacy (TVI %) (lung carcinoma NCI H460; 15 mg/kg p.o., q4d × 4): 94% and 89%
TVI % (H460 = NSCLC; H460, 15 mg/kg): 98%
